Earlier results, collected in patent publication US7820652B2, “Regimen for the administration of rifamycin-class antibiotics” (ActivBiotics Pharma, LLC, priority 2003, dated 2010).

In the case of `CO[C@H]1/C=C/O[C@@]2(C)Oc3c(C)c(O)c4c(=O)c(c5oc6cc(N7CCN(CC(C)C)CC7)cc(O)c6nc-5c4c3C2=O)NC(=O)/C(C)=C\C=C\[C@H](C)[C@H](O)[C@@H](C)[C@@H](O)[C@@H](C)[C@H](OC(C)=O)[C@@H]1C` [rifalazil], the “number and severity of adverse reactions” value (clinical trials, twice-a-week dosing regimen) is listed as “clear dose-related incidence”, the “blood cell counts and blood hemoglobin” value (daily administration) is listed as “changes in blood cell counts” and the adverse reactions (daily dose regimen) is listed as “severe adverse reactions”. The “incidence of adverse reactions” value (once- or twice-a-week dosing regimen) was “reduced, but did not eliminate”, the “activity against mycobacterium species” value (mycobacterium species) was “effective” and the “efficacy against mycobacterium species” value (mycobacterium species; once or twice-a-week dose regimen, U.S. Pat. No. 6,316,433) was “efficacious”.
